Laboratory results: patent US20250154212A1, “METHOD OF DISRUPTING MEMORY AND LIPOPEPTIDE FOR USE IN SUCH METHOD” (The Research Foundation for The State University of New York, priority 2023, published 2025)
Entries after “also recorded” stand apart in the source; their conditions may differ. Where no end group is shown, it is not given here. The star is where a group is joined. Myristoyl = CCCCCCCCCCCCCC(=O)*

What was measured:
[1] = tested on: late-LTP in CA1 st. radiatum of hippocampal slices; experiment: Late-LTP recording (fEPSP) in hippocampal slices of wild-type mice; type: cell-based, mouse; conditions: for effect on established late-LTP (fEPSP slope), tetanized pathway / effect on baseline synaptic transmission, untetanized pathway: wild-type mice; for effect on established late-LTP (fEPSP slope), tetanized pathway: 10 μM applied to the bath 3 h post-tetanization; for effect on baseline synaptic transmission, untetanized pathway: 10 μM in bath; for potentiation after drug washout: drug applied 3 h starting 3 h post-tetanization, then 4-h washout
Protocol: Acute mouse hippocampal slices (450 μm) were prepared as previously described (17, 73). Hippocampi from 2-6-month-old male C57/B6 or PKM ζ-null mice as previously described (17) were dissected, bathed in ice-cold dissection buffer, and sliced with a McIlwain tissue slicer in a cold room (4° C.). The dissection buffer contained (in mM): 125 NaCl, 2.5 KCl, 1.25 NaH2PO4, 26 NaHCO3, 11 glucose, 10 MgCl2, and 0.5 CaCl2), and was bubbled with 95% O2/5% CO2 to maintain pH at 7.4. After dissection the slices were immediately transferred into an Oslo-type interface recording chamber (31.5±1° C.) (73). The recording superfusate consisted of (in mM): 118 NaCl, 3.5 KCl, 2.5 CaCl2), 1.3 MgSO4, 1.25 NaH2PO4, 24 NaHCO3, and 15 glucose, bubbled with 95% O2/5% CO2, with a flow rate of 0.5 ml/min. In a subset of experiments a custom-made recirculation system employing piezoelectric pumps was used for recycling the superfusate (Bartels Mikrotechnik GmbH, Dortmund, Germany) (73).
Field EPSPs were recorded with a glass extracellular recording electrode (2-5 M (2) placed in the CA1 st. radiatum, and concentric bipolar stimulating electrodes (CBBRE75 and 30200; FHC, Bowdoin, ME) were placed on either side within CA3 or CA1. Test stimulation rate was once every 30 sec, alternating every 15 sec between stimulating electrodes. Based upon a pre-established exclusion criterion, a slice was not used if fEPSP spike threshold was <2 mV on initial input-output analysis. Pathway independence was confirmed by the absence of paired-pulse facilitation between the two pathways. A single stimulating electrode was used for PLA/immunocytochemistry with a test stimulation rate of once every 30 sec. The high-frequency stimulation, optimized to produce a relatively rapid onset of protein synthesis-dependent late-LTP (74), consisted of two 100 Hz-1 s tetanic trains, at 25% of spike threshold, spaced 20 sec apart. The maximum slope of the rise of the fEPSP was analyzed on a PC using the WinLTP data acquisition program (75).
Replicates are biological because there is only one measurement for each sample. Drug/vehicle comparisons were performed blindly. Sample sizes vary for the different experimental approaches (biochemistry, slice physiology, and behavior) and were established by power analyses based on effect size estimates from published work or preliminary experiments. The observed effect sizes for binary comparisons are reported as Cohen's d and as η^2p for ANOVA effects. Multi-factor comparisons were performed using ANOVA with repeated measures, as appropriate. Two-population Student's/tests were performed to compare protein immunofluorescence intensity between control and potentiated hippocampal slices. For LTP experiments, the responses were first normalized to the mean of the 30 min period prior to tetanization (or equivalent in control pathways), and then the means over 5 min periods were used for statistical comparisons (e.g., pre-tetanization, beginning and end of drug application). Paired Student's t tests were used to compare the change in the potentiated response at time points at the beginning and end of drug application. The degrees of freedom for the critical t values of the/tests and the F values of the ANOVAs are reported as subscripts. Post-hoc multiple comparisons were performed by Newman-Keuls tests as appropriate. Statistical significance was accepted at P<0.05 or appropriate Bonferroni correction for multiple comparisons.
Now we can test the central prediction of the KIBRA-PKMζ maintenance hypothesis that decoupling PKMζ from KIBRA reverses potentiation of activated synapses. We simultaneously recorded two independent synaptic pathways in st. radiatum within a hippocampal slice. We stimulated one pathway by high-frequency tetanization to induce late-LTP, and in the second pathway we recorded low-frequency test fEPSP responses for the equivalent time. […]

[2] = tested on: contextual fear/threat memory; experiment: Contextual fear/threat conditioning, infusion into dorsal hippocampus, wild-type mice; type: in vivo, mouse; conditions: 10 nmol in 0.5 μl per hemisphere in hippocampus, tested 24 h post-infusion
Protocol: (§1) Mice were 8-10 weeks old at the time of cannulation and 9-11 weeks at the beginning of behavioral experiments. Mice were housed with cage-mates in plastic cages and provided with food and water ad libitum. Mice were maintained on a 12 h light/dark cycle (lights on at 7:00 am) and behavioral experiments began at 9:00 am.
(§2) Mice were injected intraperitoneally (1 ml/100 g body weight) with an anesthetic cocktail containing ketamine (10 mg/ml) and xylazine (2 mg/ml). Mice were provided with analgesic treatment prior to surgery (carprofen; 5 mg/ml). Guide cannulae (Plastics One, Roanoke, VA) were implanted bilaterally in the dorsal hippocampus (from bregma: AP-2.1 mm; L+/−1.8 mm; DV-1.2 mm) and secured to the skull with three jeweler's screws and dental cement. Antisedan (0.66 ml/100 g body weight of 0.5 mg drug/ml solution) was given via i.p. injection after surgery to reverse the anesthesia.
(§3) For 7 days following surgery, mice were handled by freely exploring the experimenter's palm for 2-5 min. Mice were trained and tested in the same conditioning box (Coulbourn Habitest, Coulboum Instruments), which consisted of a grid floor and blank walls. […] Freezing behavior (cessation of all movement except breathing) during the 4 min session was recorded by an experimenter blind to the conditions. […]

[3] = tested on: contextual fear/threat memory in PKMζ-null mice; experiment: Contextual fear/threat conditioning, infusion into dorsal hippocampus, PKMζ-null mice; type: in vivo, mouse; conditions: 10 nmol in 0.5 μl per hemisphere in hippocampus, tested 24 h post-infusion
Protocol: as §1, §2, §3

Row | Molecule | effect on established late-LTP (fEPSP slope), tetanized pathway [1] | effect on established late-LTP (fEPSP slope), tetanized pathway ([1]; listed as z-stat) | effect on baseline synaptic transmission, untetanized pathway [1] | effect on baseline synaptic transmission, untetanized pathway ([1]; listed as z-stat) | potentiation after drug washout ([1]; wild-type) | potentiation after drug washout ([1]; wild-type, listed as z-stat) | effect on late-LTP when drug is present at tetanization ([1]; wild-type, first pathway, 150 min post-tetanization with drug) | late-LTP in second pathway after washout ([1]; wild-type, tetanized after 1-h washout) | contextual fear/threat memory (% time freezing) [2] | contextual fear/threat memory (% time freezing) [3]
1 | O=S(=O)(O)c1cc(O)c2c(S(=O)(=O)O)cc(S(=O)(=O)O)cc2c1 [ζ-stat, 1-naphthol-3,6,8-trisulphonic acid] | reverses late-LTP maintenance | reverses late-LTP | without measurably affecting synaptic transmission | no effect on baseline synaptic transmission | reversal of potentiation persisted | potentiation does not return | suppresses late-LTP | late-LTP is induced and maintained in second pathway | has no effect | has no effect
2 | myr-N-FVRNSLERRSVRMKRPS-C (Myristoyl-FVRNSLERRSVRMKRPS) [K-ZAP] | reverses late-LTP maintenance | – | no measurable effect on baseline synaptic transmission; also recorded: no effect on untetanized pathway | – | – | – | – | – | – | –
